Assay results reported in ChEMBL document CHEMBL5518227, “Discovery of JNJ-1802, a First-in-Class Pan-Serotype Dengue Virus NS4B Inhibitor” (J Med Chem, 2024).
≈ marks a conversion by molar mass, not a printed value.

Columns and labels:
[1] = Metabolic stability in rat hepatocytes assessed as intrinsic clearance measured per million cells incubated upto 120 mins by LC-MS/MS analysis; format: ADME, cell-based, Hepatocyte; conditions: read-out: CLH
[2] = Volume of distribution at steady state in Sprague-Dawley rat at 2.5 mg/kg, iv measured after 24 hrs by LC-MS/MS analysis; format: ADME, organism-based; conditions: in vivo, read-out: Vdss
[3] = Elimination half life in Sprague-Dawley rat at 2.5 mg/kg, iv measured after 24 hrs by LC-MS/MS analysis; format: ADME, organism-based; conditions: in vivo, read-out: beta t1/2 (converted)
dengue virus type 1 = assay: Antiviral activity against DENV-1 TC974#666 infected in african green monkey Vero cells incubated for 24 hrs measured after 3 days post infection by RT-PCR analysis; format: functional, organism-based; conditions: Dengue virus, TC974#666, Vero; read-out: EC50
[4] = AUC in Sprague-Dawley rat at 10 mg/kg, po measured after 24 to 48 hrs by LC-MS/MS analysis; format: ADME, organism-based; conditions: in vivo, time 24-48 hrs
dengue virus type 3 = assay: Antiviral activity against DENV-3 H87 infected in african green monkey Vero cells incubated for 24 hrs measured after 3 days post infection by RT-PCR analysis; format: functional, organism-based; conditions: Dengue virus, H87, Vero; read-out: EC50
dengue virus type 2 = assay: Antiviral activity against DENV-2 16681 expressing eGFP infected in african green monkey Vero cells incubated with cells for 24 hrs followed by viral infection measured after 3 days by laser microscopic analysis; format: functional, organism-based; conditions: Dengue virus, 16681, Vero
[5] = Oral bioavailability in Sprague-Dawley rat at 10 mg/kg measured after 24 to 48 hrs by LC-MS/MS analysis; format: ADME, organism-based; conditions: in vivo, time 24-48 hrs
[6] = Chromatographic hydrophobicity index, log D of the compound at pH 7.4 by LC/MS analysis; format: physicochemical; conditions: buffer
[7] = Cmax in Sprague-Dawley rat at 10 mg/kg, po measured after 24 to 48 hrs by LC-MS/MS analysis; format: ADME, organism-based; conditions: in vivo, time 24-48 hrs
[8] = Thermodynamic solubility of the compound in aqueous buffer at pH 7.4 measured after 24 hrs by UPLC analysis; format: physicochemical; conditions: read-out: Therm_solubility
[9] = Metabolic stability in human hepatocytes assessed as intrinsic clearance measured per million cells incubated upto 120 mins by LC-MS/MS analysis; format: ADME, cell-based, Hepatocyte; conditions: read-out: CLH
[10] = Clearance in Sprague-Dawley rat at 2.5 mg/kg, iv measured after 24 hrs by LC-MS/MS analysis; format: ADME, organism-based; conditions: in vivo
[11] = Clearance in Sprague-Dawley rat assessed as liver blood flow at 2.5 mg/kg, iv measured after 24 hrs by LC-MS/MS analysis; format: ADME, organism-based; conditions: in vivo
dengue virus type 4 = assay: Antiviral activity against DENV-4 H241 infected in african green monkey Vero cells incubated for 24 hrs measured after 3 days post infection by RT-PCR analysis; format: functional, organism-based
[12] = Thermodynamic solubility of the compound in PEG400 measured after 24 hrs by UPLC analysis; format: physicochemical
[13] = Metabolic stability in human liver microsomes assessed as intrinsic clearance preincubated for 5 mins followed by NADPH addition measured upto 60 mins by LC-MS/MS analysis; format: ADME, Microsome; conditions: time < 65 min, read-out: CLH
[14] = Metabolic stability in rat liver microsomes assessed as intrinsic clearance preincubated for 5 mins followed by NADPH addition measured upto 60 mins by LC-MS/MS analysis; format: ADME, Microsome; conditions: time < 65 min, read-out: CLH
[15] = Metabolic stability in mouse liver microsomes assessed as intrinsic clearance preincubated for 5 mins followed by NADPH addition measured upto 60 mins by LC-MS/MS analysis; format: ADME, Microsome; conditions: time < 65 min, read-out: CLH

Row | SMILES | hepatocyte CLint [1] [µL/min/1e6 cells] | Vd [2] [L/kg] | half-life [3] [h] | EC50 (dengue virus type 1) [nM] | AUC [4] [ng·h/mL] | EC50 (dengue virus type 3) [nM] | EC50 (dengue virus type 2) [nM] | bioavailability [5] [%] | Chromatographic log D at pH 7.4 [6] | Cmax [7] [ng/mL] | solubility thermodynamic at 24 h [8] [µg/mL] | hepatocyte CLint [9] [µL/min/1e6 cells] | clearance [10] [mL/min/kg] | LBF [11] [%] | EC50 (dengue virus type 4) [nM] | Therm_solubility [12] [µg/mL] | microsomal CLint [13] [µL/min/mg] | microsomal CLint [14] [µL/min/mg] | microsomal CLint [15] [µL/min/mg]
1 | COc1cc(NC(C(=O)c2c[nH]c3cc(OC)c(C)cc23)c2ccc(F)cc2OC)cc(S(C)(=O)=O)c1 (single isomer, unassigned; (+)) | 17 | 5.5 | 5.1 | 40 | 3700 | 55 | 0.61 | 31 | 3.36 | 263 | 1 (≈ 1.9 µM) | 7.6 | 14 | 20 | 110 | 93000 |  |  | 
2 | COc1cc(NC(C(=O)c2c[nH]c3cc(F)ccc23)c2ccc(Cl)cc2OCCO)cc(S(C)(=O)=O)c1 (single isomer, unassigned; (+)) |  |  |  | 1 |  | 9 | 0.46 |  |  |  |  | 29 |  |  | 71 |  |  |  | 
3 | COc1cc(NC(C(=O)c2c[nH]c3c(C)c(F)ccc23)c2ccc(Cl)cc2OC)cc(S(C)(=O)=O)c1 (single isomer, unassigned; (+)) |  |  |  | 2 |  | 19 | 0.24 |  | 3.73 |  |  |  |  |  | 83 |  | < 8 |  | 
4 | COc1cc(NC(C(=O)c2c[nH]c3ccccc23)c2ccc(F)cc2OC)cc(S(C)(=O)=O)c1 (single isomer, unassigned; (+)) |  |  |  | 12 |  | 120 | 2 |  |  |  |  | 7 |  |  | 230 |  | 9 | 15 | 27
5 | COc1cc(NC(C(=O)c2c[nH]c3c(C)cc(OC(F)(F)F)cc23)c2ccc(Cl)cc2OC)cc(S(C)(=O)=O)c1 (stereo not given) |  |  |  | 0.1 |  | 1 | 0.051 |  | 4.16 |  |  | < 1.2 |  |  | 11 |  | < 8 |  | 
6 | COc1cc(NC(C(=O)c2c[nH]c3cc(OC)c(F)cc23)c2ccc(Cl)cc2OC)cc(S(C)(=O)=O)c1 (single isomer, unassigned; (+)) |  |  |  | 4 |  | 53 | 0.34 |  | 3.22 |  |  | 10 |  |  | 100 |  | < 8 |  | 
7 | COc1cc(NC(C(=O)c2c[nH]c3ccccc23)c2ccc(F)cc2OC)cc(OCCO)c1 (single isomer, unassigned; (+)) |  |  |  | 40 |  | 210 | 9 |  |  |  |  |  |  |  | 760 |  | 8 | 24 | 190
8 | COc1cc(NC(C(=O)c2c[nH]c3c(C)c(OC)ccc23)c2ccc(Cl)cc2OC)cc(S(C)(=O)=O)c1 (single isomer, unassigned; (+)) |  |  |  | 2 |  | 19 | 0.11 |  | 3.59 |  |  | 14 |  |  | 95 |  | < 8 |  | 
9 | COc1cc(NC(C(=O)c2c[nH]c3cc(F)ccc23)c2ccc(F)cc2OCCO)cc(S(C)(=O)=O)c1 (single isomer, unassigned; (+)) | 8.8 | 10 | 3.9 | 8 | 1250 | 68 | 1 | 27 | Not Active | 104 | 1 (≈ 1.88 µM) | 27 | 35 | 40 | 290 |  |  |  | 
10 | COc1cc(NC(C(=O)c2c[nH]c3ccccc23)c2ccc(F)cc2)cc(S(C)(=O)=O)c1 (stereo not given) |  |  |  | 88 |  | 680 | 9 |  |  |  |  |  |  |  | 1800 |  | 12 | 16 | 48
